Data reported in patent publication US7927785B2, “Methods for in vitro expansion of hematopoietic stem cells” (The Board of Trustees of the University of Illinois, priority 2002, dated 2011).

Test system: CpG residue located at −256 position within the γ-globin promoter region
Assay: COBRA (Combined Bisulfite Restriction Analysis) of DNA methylation
Type: cell-based, human
Description: DNA was prepared from cultured CD34^+ cells (0.5-2.0×10^6 total cells) using the QIAamp DNA blood Minikit (Qiagen, Valencia, Calif.) according to manufacturer's instructions. The purified DNA was digested with 10-20 units Hind III at 37° C. for one hour followed by two extractions with a 50/50/1 mixture of phenol/chloroform/isoamyl:alcohol saturated with 0.5 M Tris, pH 7.5. The digested DNA was precipitated overnight at −20° C. in the presence of 2.5 volumes ethanol and 0.3 M sodium acetate, pH 7.0. DNA was harvested by centrifugation, washed 2× in 70% ethanol and dissolved in H2O.
DNA Denaturation was performed by incubation of 1-2 μg DNA in 10-20 μl 0.3 M NaOH at 37° C. for 20 minutes. Bisulfite modification was performed by the addition of 200 μl bisulfite solution (2.5 M sodium metabisulfite, 100 mM hydroquinone) prepared according to the method as described (Clark et al., Nucleic Acid Res. 22:2990-2997, 1994; Raizis et al., Anal. Biocem; 226:161-166, 1995; Xiong et al., Nucleic Acid Res., 2532-2534, 1997), followed by incubation for 4 hours at 50° C. […]
For COBRA (Combined Bisulfite Restriction Analysis), a 201 bp fragment of the γ-globin promoter region was amplified by two rounds of PCR using doubly nested primers. […] Digested products were analyzed by polyacrylamide gel electrophoresis (5% gel), visualized by staining with ethidium bromide, and quantified by densitometry.

Nc1ncn([C@H]2C[C@H](O)[C@@H](CO)O2)c(=O)n1 [5azaD, 5-aza2′deoxycitidine]
% Hypomethylation (5 days of culture, 5azaD 10−6M, TSA 5 ng/ml, approximated): 68%
% Methylation (COBRA, −256 position of γ-globin promoter) (cultured 5 days with cytokines, densitometry): 32%
